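Five concentrations, 48 hours, 96-well plates. GI50 marks 50% less growth.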 Calls of active or inactive are those of the source. Rule as the data show it: active = GI50 up to about 1.1 µM and inactive = higher.
Key:
Experiment in all cases: NCI-60 cell line screen, 48 h
[1] = tested on: LXFL 529
[2] = tested on: SNB-78
[3] = tested on: M19-MEL
[4] = tested on: XF498
[5] = tested on: DMS-114
[6] = tested on: DMS-273
[7] = tested on: DLD-1
[8] = tested on: HOP-18
[9] = tested on: RXF 631

Structure (SMILES) | GI50 [1] | GI50 [2] | GI50 [3] | GI50 [4] | GI50 [5] | GI50 [6] | GI50 [7] | GI50 [8] | GI50 [9]
CC1(C)OC(=O)C(=Cc2ccc(O)cc2)C(=O)O1 | > 100 µM (inactive) | > 100 µM (inactive) | > 100 µM (inactive) | > 100 µM (inactive) | > 100 µM (inactive) | > 100 µM (inactive) | – | – | –
CCCCCN(CCCCC)C(=O)[C@H](CCC(=O)O)NC(=O)c1cc2ccccc2[nH]1 | 56.6 µM (inactive) | 95.1 µM (inactive) | 45.5 µM (inactive) | 44.9 µM (inactive) | 52.5 µM (inactive) | 49.2 µM (inactive) | 38.3 µM (inactive) | – | –
C1COCCSC2=C(SCCO1)SC(=C1SC3=C(SCCOCCOCCS3)S1)S2 | > 100 µM (inactive) | 38 µM (inactive) | – | 28.6 µM (inactive) | 63.5 µM (inactive) | > 100 µM (inactive) | > 100 µM (inactive) | > 100 µM (inactive) | –
CC1=C(C(=O)Nc2ccc(Cl)c(Cl)c2)C(c2ccco2)C(C(=O)Nc2ccc(Cl)c(Cl)c2)=C(C)N1 | 11.9 µM (inactive) | 17.3 µM (inactive) | 11.8 µM (inactive) | 1.11 µM (active) | 9.16 µM (inactive) | 16 µM (inactive) | 10.3 µM (inactive) | 12.5 µM (inactive) | 12.9 µM (inactive)
COc1cc2c(c(C)c1O)[C@H]1COc3ccccc3[C@H]1O2 | 14.6 µM (inactive) | 23.4 µM (inactive) | 12.5 µM (inactive) | – | 5.12 µM (inactive) | 5.81 µM (inactive) | 24.4 µM (inactive) | 1.37 µM (inactive) | 11.6 µM (inactive)
CC(=O)N(C(C)=O)C1=C2c3ccccc3N(S(=O)(=O)c3ccccc3)C2n2c(=O)n(-c3ccccc3)c(=O)n2C1 (stereo not drawn) | 39.7 µM (inactive) | – | 27.1 µM (inactive) | – | – | 44.2 µM (inactive) | 32.6 µM (inactive) | 22 µM (inactive) | –
Nc1cc2c(C3OC(CO)C(O)C3O)n[nH]c2c(=S)[nH]1 (stereo not drawn) | > 100 µM (inactive) | > 100 µM (inactive) | > 100 µM (inactive) | > 100 µM (inactive) | > 100 µM (inactive) | > 100 µM (inactive) | > 100 µM (inactive) | – | > 100 µM (inactive)
O=c1nc2sc3ccc4ccccc4c3n2nc1O | 68.1 µM (inactive) | 70.3 µM (inactive) | – | – | 75.2 µM (inactive) | 39.8 µM (inactive) | 40.9 µM (inactive) | 71.3 µM (inactive) | –
COc1ccc(N2C(=O)C3C=CC(n4[nH]c(=O)n(Cc5ccccc5)c4=O)CC3C2=O)cc1 (stereo not drawn) | > 100 µM (inactive) | > 100 µM (inactive) | > 100 µM (inactive) | > 100 µM (inactive) | > 100 µM (inactive) | > 100 µM (inactive) | > 100 µM (inactive) | > 100 µM (inactive) | –
O=C1/C(=C/c2ccccc2Cl)COc2ccc(Br)cc21 | 63 µM (inactive) | 43.1 µM (inactive) | > 100 µM (inactive) | 27.2 µM (inactive) | 38.3 µM (inactive) | 32.3 µM (inactive) | 65.9 µM (inactive) | 54.1 µM (inactive) | –
NC(=O)N/N=C(/Cc1nc2ccc(C(=O)c3ccccc3)cc2nc1O)C(=O)Nc1ccc(C(F)(F)F)cc1[N+](=O)[O-] | 45.5 µM (inactive) | > 100 µM (inactive) | > 100 µM (inactive) | 38.6 µM (inactive) | 52.1 µM (inactive) | 51.9 µM (inactive) | > 100 µM (inactive) | 60.3 µM (inactive) | 47 µM (inactive)
CCOC(=O)CC(NC(=O)c1ccc(/N=N/N(C)C)cc1)C(=O)OCC (stereo not drawn) | > 100 µM (inactive) | – | > 100 µM (inactive) | – | – | > 100 µM (inactive) | > 100 µM (inactive) | – | –
c1ccc(COc2cccc3cccnc23)cc1 | 47.8 µM (inactive) | – | 67.3 µM (inactive) | 70.8 µM (inactive) | 36.3 µM (inactive) | – | > 100 µM (inactive) | 21.6 µM (inactive) | > 100 µM (inactive)
Nc1ccc(/C=C/c2ccnc3ccccc23)cc1 | 19.7 µM (inactive) | – | 31 µM (inactive) | – | 15.1 µM (inactive) | 18.1 µM (inactive) | 22.9 µM (inactive) | – | –
CC(=O)OCC1OC(n2cc(I)c(=O)[nH]c2=O)C(OC(C)=O)C(OC(C)=O)C1OC(C)=O (stereo not drawn) | > 100 µM (inactive) | – | > 100 µM (inactive) | > 100 µM (inactive) | > 100 µM (inactive) | > 100 µM (inactive) | > 100 µM (inactive) | > 100 µM (inactive) | –
COC1OC(C)C(OCc2ccccc2)C(OS(=O)(=O)c2ccc(C)cc2)C1OS(=O)(=O)c1ccc(C)cc1 (stereo not drawn) | > 100 µM (inactive) | > 100 µM (inactive) | > 100 µM (inactive) | – | > 100 µM (inactive) | > 100 µM (inactive) | > 100 µM (inactive) | > 100 µM (inactive) | –
O=C1NC2(NC(=O)C1=O)Nc1ccccc1S2 | 36.6 µM (inactive) | > 67.1 µM (inactive) | – | – | 28.4 µM (inactive) | 42.1 µM (inactive) | 23.7 µM (inactive) | > 100 µM (inactive) | 20 µM (inactive)
CCCc1nc(NC#N)nc(C(=O)Nc2ccccc2)c1CC | > 100 µM (inactive) | > 100 µM (inactive) | > 100 µM (inactive) | > 100 µM (inactive) | > 100 µM (inactive) | > 100 µM (inactive) | > 100 µM (inactive) | > 100 µM (inactive) | > 100 µM (inactive)
CCOC1=C2N=C(Cc3ccc(F)cc3)NC2C(=O)c2ccccc21 (stereo not drawn) | 25.5 µM (inactive) | 69 µM (inactive) | 9.44 µM (inactive) | > 10 µM (inactive) | 18.5 µM (inactive) | 9.71 µM (inactive) | 27 µM (inactive) | – | 15.1 µM (inactive)
N#CCC(=O)Nc1ccccc1O | > 100 µM (inactive) | > 100 µM (inactive) | > 100 µM (inactive) | > 100 µM (inactive) | – | > 100 µM (inactive) | > 100 µM (inactive) | > 100 µM (inactive) | > 100 µM (inactive)
CC12C=C[C@]3(CC[C@@H]4[C@@](C)(CO)CCC[C@]4(C)C3CC1)C2 (stereo partly drawn) | 16.9 µM (inactive) | 18.6 µM (inactive) | 19.2 µM (inactive) | 19.6 µM (inactive) | 15.5 µM (inactive) | 16.1 µM (inactive) | > 10 µM (inactive) | – | –
CC(c1ccccc1)N1O[C@]12CC[C@@]1(C)C(CCCC13OCCO3)C2 (stereo partly drawn) | – | 20.3 µM (inactive) | 23 µM (inactive) | 22.5 µM (inactive) | 13.4 µM (inactive) | 19.2 µM (inactive) | 17.1 µM (inactive) | – | –
C#CCOCn1cnc2c(S)ncnc21 | > 100 µM (inactive) | – | > 100 µM (inactive) | > 100 µM (inactive) | > 100 µM (inactive) | > 100 µM (inactive) | > 100 µM (inactive) | – | > 100 µM (inactive)
